Data: US7244738B2, “Arylamine-substituted quinazolinone compounds useful as alpha 1A/B adrenergic receptor antagonists” (Roche Palo Alto LLC, priority 2003, dated 2007)

Assays:
alpha1B adrenoceptor = biological target: T1, alpha1B adrenoceptor (Homo sapiens, UniProt P35368); assay: [3H]prazosin binding (alpha1-adrenoceptor) assay, membranes of transfected CHO-K1 cells; details: transfected CHO-K1 cell membranes, read-out: pKi alpha 1B (converted)
T1 construct: expressed in transfected cells; host or cells: CHO-K1
T1 sequence (P35368 1-520): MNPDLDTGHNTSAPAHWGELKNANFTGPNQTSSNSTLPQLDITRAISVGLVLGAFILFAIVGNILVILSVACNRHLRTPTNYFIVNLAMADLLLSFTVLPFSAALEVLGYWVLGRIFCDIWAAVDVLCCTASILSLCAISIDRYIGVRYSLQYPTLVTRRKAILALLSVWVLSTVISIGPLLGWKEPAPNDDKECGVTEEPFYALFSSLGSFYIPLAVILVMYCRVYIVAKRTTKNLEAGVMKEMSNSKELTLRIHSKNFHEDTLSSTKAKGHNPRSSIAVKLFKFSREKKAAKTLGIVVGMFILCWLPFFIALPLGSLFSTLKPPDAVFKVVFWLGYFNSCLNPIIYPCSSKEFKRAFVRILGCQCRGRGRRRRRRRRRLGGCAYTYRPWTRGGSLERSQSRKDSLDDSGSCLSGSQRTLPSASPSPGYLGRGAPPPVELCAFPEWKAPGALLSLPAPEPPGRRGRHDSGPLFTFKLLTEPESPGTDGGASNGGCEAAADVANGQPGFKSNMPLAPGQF
Procedure: (§1) Example [^3H]prazosin Binding (Alpha1-Adrenoceptor) Assay
(§2) Alpha1A, alpha1B, and alpha1D adrenoceptor transfected CHO-K1 cells, prepared using the methods described by Chang et al., FEBS Lett. 1998, 422:279–283, were grown to confluence in T-162 tissue culture flasks in Ham's F-12 culture medium supplemented with 10% fetal bovine serum, geneticin (150 μg/mL) and streptomycin/penicillin (30 μg/mL/30 μg/mL) at 37° C. in 7% CO2. Cells were harvested by incubating with phosphate-buffered saline (PBS) containing 30 μM EDTA for 5–10 min at 37° C. Cells were pelleted by centrifuging at 500×g for 5 min, and the pelleted cells were homogenized (Polytron homogenizer) in 10 vols (w/v) of 50 mM Tris, 1 mM EDTA, (homogenisation buffer, pH 7.4 at 4° C.). The homogenate was centrifuged at 45,000×g for 20 min. The pellet was resuspended in the homogenizing buffer and rehomogenized. The resulting homogenate was centrifuged at 45,000×g for 20 min. The pellet was resuspended in 50 mM Tris buffer (pH 7.4 at 4° C.), aliquoted, frozen, and stored at −80° C. for further use.
(§3) The membranes were thawed at room temperature and diluted in assay buffer (50 mM Tris buffer at […]) at 37° C. and homogenized using the Polytron tissue disrupter. The membranes were incubated with the radioligand ([^3H]prazosin, NEN, 0.1–0.5 nM) and test compound at 37° C. for 30 min. The membranes were then filtered over polyethyleneimine-treated GF/B unifilter plates using a Packard Filtermate Harvester and washed with ice-cold 50 mM Tris-HCl, 1 mM EDTA buffer (3×3 sec. washes). Scintillation cocktail was added to the filter plates and bound radioligand determined by liquid scintillation spectrophotometry.
(§4) For each experiment, total binding (in the absence of any test or reference compounds) and non-specific binding (10 μM phentolamine) were determined. For each sample tested, the concentration producing 50% inhibition of binding (IC50) and Hill Slope (nH) was determined using iterative non-linear curve fitting techniques with Kaleidagraph (Synergy Software) or other appropriate software. If the radioligand KD was known, the inhibition dissociation constant (KI) of each ligand was determined according to the method of Cheng and Prusoff (Cheng, Y-C. and Prusoff, W. H., Biochem. Pharmacol., 1973, 22, 3099–3108).

alpha1D adrenoceptor = biological target: T2, alpha1D adrenoceptor (Homo sapiens, UniProt P25100); assay: as above; details: transfected CHO-K1 cell membranes, read-out: pKi alpha 1D (converted)
T2 construct: expressed in transfected cells; host or cells: CHO-K1
T2 sequence (P25100 1-572): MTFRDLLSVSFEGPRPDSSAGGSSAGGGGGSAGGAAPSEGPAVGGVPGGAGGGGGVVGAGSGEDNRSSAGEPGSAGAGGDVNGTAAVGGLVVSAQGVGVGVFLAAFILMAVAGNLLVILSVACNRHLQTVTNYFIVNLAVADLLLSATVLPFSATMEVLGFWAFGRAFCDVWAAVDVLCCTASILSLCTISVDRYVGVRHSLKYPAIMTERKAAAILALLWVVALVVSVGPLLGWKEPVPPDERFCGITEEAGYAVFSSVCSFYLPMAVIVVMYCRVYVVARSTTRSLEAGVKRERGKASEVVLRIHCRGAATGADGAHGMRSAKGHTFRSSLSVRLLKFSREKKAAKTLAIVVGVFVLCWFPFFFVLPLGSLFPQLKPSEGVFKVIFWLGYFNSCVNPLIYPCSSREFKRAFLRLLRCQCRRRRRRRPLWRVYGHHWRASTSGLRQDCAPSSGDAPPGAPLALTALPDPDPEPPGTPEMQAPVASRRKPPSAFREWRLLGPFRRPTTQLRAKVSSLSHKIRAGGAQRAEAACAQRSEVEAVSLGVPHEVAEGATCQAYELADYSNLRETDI
Procedure: as §1, §2, §3, §4

Alpha1A adrenoceptor = biological target: T3, Alpha1A adrenoceptor (Homo sapiens, UniProt P35348); assay: as above; details: transfected CHO-K1 cell membranes, read-out: pKi alpha 1A (converted)
T3 construct: expressed in transfected cells; host or cells: CHO-K1
T3 sequence (P35348 1-466): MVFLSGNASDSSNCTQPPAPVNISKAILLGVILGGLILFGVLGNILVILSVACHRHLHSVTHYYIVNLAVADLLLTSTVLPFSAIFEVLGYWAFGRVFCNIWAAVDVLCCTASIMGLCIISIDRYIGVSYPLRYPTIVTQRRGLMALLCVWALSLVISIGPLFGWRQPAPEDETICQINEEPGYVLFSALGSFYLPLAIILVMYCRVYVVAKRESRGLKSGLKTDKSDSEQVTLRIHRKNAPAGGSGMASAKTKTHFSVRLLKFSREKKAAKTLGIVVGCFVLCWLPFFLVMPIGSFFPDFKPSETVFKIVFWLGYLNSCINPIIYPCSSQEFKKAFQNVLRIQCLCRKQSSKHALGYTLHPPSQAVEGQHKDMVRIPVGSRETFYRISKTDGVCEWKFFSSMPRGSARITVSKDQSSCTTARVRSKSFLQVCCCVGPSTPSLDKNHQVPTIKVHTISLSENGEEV
Procedure: as §1, §2, §3, §4

anesthetized dog = assay: Dog in vivo intraurethral and blood pressure assay; details: anesthetized male Mongrel dog, i.v. bolus, increasing doses
Procedure: Dog In Vivo Intraurethral and Blood Pressure Assay
The following describes an in vivo assay for measuring the relative effect of test compounds on hypogastric nerve stimulation-induced increases in intraurethral pressure and phenylephrine-induced increases in diastolic blood pressure in anesthetized dog.
Male Mongrel dogs (10 to 20 kg) were fasted for 12 to 18 hours and anesthetized with phenobarbital sodium (36 mg/kg, i.v.). An endotracheal tube was inserted and thereafter the lungs were mechanically ventilated with room air. The right femoral vein was isolated and cannulated with two polyethylene cannulae, one for the administration of a continuous infusion of phenobarbital sodium (5 to 10 mg/kg/hr) and the other for bolus administration of test substances. The right femoral artery was isolated and cannulated to the abdominal aorta with a fluid filled polyethylene cannula connected to an external pressure transducer for monitoring diastolic aortic pressure (DAP). The bladder was exposed via a ventral midline abdominal incision and emptied of urine through a 22 gauge needle. The bladder was cannulated through a stab incision with a water filled balloon catheter connected to an external pressure transducer for monitoring prostatic intraurethral pressure (IUP). The right hypogastric nerve (HGN) was carefully isolated and attached to a Dastre's electrode for nerve stimulation. […]

SMILES: CCN(C)Cc1ccc(CN(C)c2nc(=O)c3c(OC)c(OC)c(OC)cc3[nH]2)cc1 [2-({4-[(ethyl-methyl-amino)-methyl]-benzyl}-methyl-amino)-5,6,7-trimethoxy-1H-quinazolin-4-one]
- Ki (alpha1B adrenoceptor): 3.09 nM
- Ki (alpha1D adrenoceptor): 550 nM
- Ki (Alpha1A adrenoceptor): 3.16 nM

SMILES: COc1cc2[nH]c(N(C)Cc3cccc(C(C)N(C)C)c3)nc(=O)c2c(OC)c1OC (centres unmarked) [2-{[3-(1-Dimethylamino-ethyl)-benzyl]-methyl-amino}-5,6,7-trimethoxy-1H-quinazolin-4-one]
- Ki (alpha1B adrenoceptor): 3.72 nM
- Ki (alpha1D adrenoceptor): 141 nM
- Ki (Alpha1A adrenoceptor): 1.55 nM

SMILES: COc1cc2[nH]c(N(C)Cc3cccc(C4=NCCO4)c3)nc(=O)c2c(OC)c1OC [2-{[3-(4,5-dihydro-oxazol-2-yl)-benzyl]-methyl-amino}-5,6,7-trimethoxy-1H-quinazolin-4-one]
- Ki (alpha1B adrenoceptor): 14.8 nM
- Ki (alpha1D adrenoceptor): 2630 nM
- Ki (Alpha1A adrenoceptor): 813 nM

SMILES: COc1cc2[nH]c(N(C)Cc3ccc(OCC(O)CO)cc3)nc(=O)c2c(C)c1OC (centres unmarked) [2-{[4-(2,3-dihydroxy-propoxy)-benzyl]-methyl-amino}-6,7-dimethoxy-5-methyl-1H-quinazolin-4-one]
- Ki (alpha1B adrenoceptor): 6.92 nM
- Ki (alpha1D adrenoceptor): 794 nM
- Ki (Alpha1A adrenoceptor): 7.08 nM

SMILES: COc1cc2[nH]c(N(C)Cc3cccc(CN4CCC(OC)C4)c3)nc(=O)c2c(OC)c1OC (centres unmarked) [5,6,7-trimethoxy-2-{[3-(3-methoxy-pyrrolidin-1-ylmethyl)-benzyl]-methyl-amino}-1H-quinazolin-4-one]
- Ki (alpha1B adrenoceptor): 7.41 nM
- Ki (alpha1D adrenoceptor): 5370 nM
- Ki (Alpha1A adrenoceptor): 5.37 nM

SMILES: COc1cc2[nH]c(N(C)Cc3ccc4c(c3)CN(C)C4)nc(=O)c2c(C)c1OC [6,7-Dimethoxy-5-methyl-2-[methyl-(2-methyl-2,3-dihydro-1H-isoindol-5-ylmethyl)-amino]-1H-quinazolin-4-one]
- Ki (alpha1B adrenoceptor): 14.8 nM
- Ki (alpha1D adrenoceptor): 2630 nM
- Ki (Alpha1A adrenoceptor): 3.24 nM

SMILES: COc1cc2nc(N3CCN(C(=O)c4ccco4)CC3)nc(N)c2cc1OC [prazosin]
- inhibition of hypogastric nerve (HGN) stimulation-induced increases in intraurethral pressure (IUP) (anesthetized dog): inhibited increases in IUP and DAP in similar fashion
- inhibition of phenylephrine-induced increases in diastolic aortic pressure (DAP) (anesthetized dog): inhibited increases in IUP and DAP in similar fashion
